# Key:
# [1] = system: CVF-induced acute lung injury; test: Cobra venom factor (CVF)-induced acute lung injury in the rat; type: in vivo
# Protocol: Groups of rats were pretreated with either vehicle, SLN-OH (0.6 mg/Kg), or with SLX-OH (0.6 mg/Kg) 5 minutes prior to administration of either CVF or PBS. Each bar represents the mean of 6 animals and vertical lines represent the standard error of the mean.
# Groups of rats were pretreated with either vehicle or Z at the indicated doses 5 minutes prior to administration of CVF or PBS. Each point represents the mean of 6 animals and vertical lines represent the standard error of the mean.
# The intravenous injection of CVF produces intravascular complement activation which results in lung injury, defined as an increase in neutrophil accumulation within the lung, an increase in pulmonary vascular permeability and in lung hemorrhage. It is likely that intravascular complement activation results in the generation of a wide range of inflammatory mediators. Of particular relevance to the studies described here is generation of the split fifth complement component, C5a, which can stimulate the release of histamine from circulating basophils and tissue mast cells. […] The expression of selectins, including P-selectin, is a necessary first step in the process of leukocyte adherence to vascular endothelium.
# Animals were dosed with different oligosaccharide preparations or phosphate buffered saline (PBS) five minutes before administration of cobra venom factor (20 units/Kg, i.v.). Included in this material was an aliquot of ^125 I-bovine serum albumin (0.5 μCi) and ^51 Cr labelled autologous red blood cells (0.5 μCi) for measuring plasma extravasation and hemorrhage respectively. Thirty minutes after administration of the cobra venom factor the animals were anesthetized with ketamine hydrochloride (10 mg/Kg) and exsanguinated via the posterior vena cava. The lung vasculature was then perfused through the right cardiac ventricle with 10 mL of PBS. The lungs were removed and the amount of radioactivity remaining within the tissue assessed with a gamma scintillation counter. Increased pulmonary vascular permeability was measured as the ratio of ^125 I in lung tissue compared with the amount present in 1 mL of venous blood obtained at the time of death. Lung hemorrhage was measured as the ratio of ^51 Cr in lung tissue compared with the amount present in 1 mL of venous blood obtained at the time of death. Neutrophil accumulation in lungs was determined by measuring the myeloperoxidase activity of lungs homogenized in PBS. Myeloperoxidase activity in lung supernatants was assayed by measuring the change in absorbance at 460 nm resulting from decomposition of H2 O2 in the presence of o-dianisidine
# creatinine kinase = test: Plasma creatinine kinase after myocardial ischemia-reperfusion in cats; type: in vivo, cat; settings: 10 mg/Kg i.v.; control 25±3, P<0.01
# Protocol: (§1) A model of myocardial ischemia and reperfusion injury in cats was performed according to the methods of Tsao et al (Circulation 82:1402-1412 (1990), which is incorporated herein by reference. Briefly, male cats (2.5-3.5 Kg) were anesthetized with sodium pentobarbital (30 mg/Kg, i.v.). An intratracheal tube was inserted through a mid-line incision and all cats were given intermittent positive pressure ventilation by a Harvard small animal respirator. A polyethylene catheter was inserted into the external jugular vein and the right […] was cannulated and connected to a Statham P23AC pressure transducer for the measurement of arterial blood pressure. A midline thoracotomy was performed, the pericardium was opened and the heart was exposed. A 2-0 silk suture was carefully placed around the left anterior descending artery (LAD) 10-12 mm from its origin. […]
# (§2) Endothelial dependent relaxation of coronary artery rings was determined by measuring the acetylcholine-induced relaxation of rings previously contracted with the thromboxane A2 mimetic U46619. Data are expressed as percentage relaxation. Creatinine kinase enzyme levels were measured immunochemically in plasma samples collected at the end of the reperfusion period. The adherence of PMNs to sections of coronary artery was measured in vitro using fluorescene labelled autologous cat neutrophils.
# [2] = system: myocardial ischemia-reperfusion injury in the cat heart; test: Myocardial ischemia-reperfusion injury in cats: ischemic myocardium; type: in vivo, cat (male); settings: 10 mg/Kg i.v.; control 35±4%, P<0.01
# Protocol: A model of myocardial ischemia and reperfusion injury in cats was performed according to the methods of Tsao et al (Circulation 82:1402-1412 (1990), which is incorporated herein by reference. Briefly, male cats (2.5-3.5 Kg) were anesthetized with sodium pentobarbital (30 mg/Kg, i.v.). An intratracheal tube was inserted through a mid-line incision and all cats were given intermittent positive pressure ventilation by a Harvard small animal respirator. A polyethylene catheter was inserted into the external jugular vein and the right […] was cannulated and connected to a Statham P23AC pressure transducer for the measurement of arterial blood pressure. A midline thoracotomy was performed, the pericardium was opened and the heart was exposed. A 2-0 silk suture was carefully placed around the left anterior descending artery (LAD) 10-12 mm from its origin. After a 30 minute period of stabilization myocardial ischemia was initiated by complete ligation of the LAD for 1.5 hours of ischemia followed by 4.5 hours of reperfusion. Z (10 mg/Kg in PBS) or PBS alone were administered intravenously 10 minutes prior to the initiation of reperfusion.
# Area at risk was determined by reocclusion of the LAD at the end of the reperfusion period followed by the injection of Evans blue dye into the left atrium. The area of risk was, therefore, determined by negative staining.
# [3] = system: dermal and pulmonary models of inflammation; test: Dermal and pulmonary models of inflammation: leukocyte accumulation; type: in vivo
# [4] = system: coronary vascular endothelium; test: Adherence of cat PMNs to coronary endothelium in vitro; type: cell-based
# Protocol: as §2
# [5] = system: IgA immune complex induced lung injury; test: IgA immune complex-induced acute lung injury in the rat; type: in vivo, rat (male Long-Evans); settings: conclusion in words
# Protocol: Groups of rats were dosed with either vehicle, SLN-OH (100 μpg), or with SLX-OH (100 μg) […] post induction of inflammation. Each bar represents the mean of 6 animals and vertical lines represent the standard error of the mean.
# Adult male (300 g) specific pathogen-free Long-Evans rats purchased from Charles River Labs (Portage, Mich.) were employed in the studies. For the induction of IgG immune complex pulmonary inflammation rabbit polyclonal IgG rich in antibody to bovine serum albumin (antiBSA) was purchased from Organon Teknika (Westchester, PA). Intraperitoneal ketamine (10 mg/Kg) was administered for anesthesia. 2.5 mg of anti-BSA in a volume of 300 μl was instilled intratracheally via a small intratracheal catheter during inspiration after surgical exposure of the trachea. Intravenous injection of 10 mg BSA was injected intravenously to generate immune complex formation. Trace amounts of ^125 I-BSA and ^51 Cr-RBC were administered with the BSA as markers for plasma and RBC extravasation respectively. Rats were sacrificed 4 h later and lung injury was assessed by the ratio of radiolabelled albumin in the lungs relative to the circulation (permeability), the ratio of RBC in the lungs relative to the circulation (hemorrhage) and the amount of myeloperoxidase activity in a lung homogenate (neutrophil accumulation). For induction of IgA immune complex induced lung injury 1.2 mg of a murine myeloma IgA protein specific for dinitrophenol (DNP) was instilled intratracheally and 3.3 mg DNP-bovine serum albumin injected intravenously. Lung injury was assessed in the same manner described for IgG-induced lung injury.
# SLX-OH, Z, the non-fucosylated control oligosaccharide SLN, or an equivalent volume of PBS were injected intravenously in three equally divided doses at 2, 2.5, and 3 h following deposition of immune complexes. This schedule for injections was selected since it coincides with the time during which rapid expression of E-selectin occurs in the pulmonary vasculature.
# coronary artery rings = test: Acetylcholine-induced endothelial dependent relaxation of coronary artery rings from ischemic-reperfused cats; type: in vivo, cat; settings: 10 mg/Kg i.v.; control 22±6%, P<0.01
# Protocol: as §1, §2
# [6] = dose range 0.15 to 1.5 mg/Kg (FIG. 17)
Structure (SMILES),"reduction of hemorrhage [1, 6]","reduction of neutrophil MPO content [1, 6]","reduction of permeability values [1, 6]","dose at which protective effects plateau ([1]; rat, in vivo)",plasma concentration of creatinine kinase (creatinine kinase),"extent of myocardial ischemia, of the area at risk [2]",inhibition of leukocyte accumulation [3],"adhesion of cat PMNs to thrombin stimulated coronary vascular endothelium ([4]; 250μM, thrombin 2 unit/mL)",adherence of PMNs to coronary endothelium from treated animals ([4]; endothelium from treated animals versus control animals),effect on IgA immune complex-induced neutrophil accumulation and pathological sequelae [5],endothelial dependent relaxation to acetylcholine (coronary artery rings),"effect on CVF-induced permeability, hemorrhage, MPO / lung injury ([1]; in words, prior to CVF, 30 minutes)"
"CCO[C@@H]1O[C@H](CO)[C@H](O)[C@H](O[C@@H]2O[C@H](CO)[C@@H](O[C@@H]3O[C@H](CO)[C@H](O)[C@H](O[C@]4(C(=O)O)C[C@H](O)[C@@H](NC(C)=O)[C@H]([C@H](O)[C@H](O)CO)O4)[C@H]3O)[C@H](O[C@@H]3O[C@@H](C)[C@@H](O)[C@@H](O)[C@@H]3O)[C@H]2NC(C)=O)[C@H]1O [Z, Ethyl(sodium(5-acetamido-3,5-dideoxy-α-D-glycero-D-galacto-2-nonulopyanosylonate))-(2-3)-O-(β-D-galactopyranosyl)-(1-4)-O-((α-L-fucopyranosyl)-(1-3))-O-(2-acetamido-2-deoxy-β-D-glucopyranosyl)-(1-3)-O-β-D-galactopyranoside]",47%,49%,67%,0.6 mg/kg,7±1 IU/mg protein,6±1%,do not provide evidence of the ability of Z to inhibit leukocyte accumulation,blocked the adhesion of cat PMNs,less than that determined in control animals,not IgA,73±7%,
"CC(=O)NC1C(O)OC(CO)C(OC2OC(CO)C(O)C(OC3(C(=O)O)CC(O)C(NC(C)=O)C(C(O)C(O)CO)O3)C2O)C1O (stereo not drawn) [SLN, reference compound]",,,,,,,,,,,,did not inhibit CVF-induced neutrophil accumulation or CVF-induced lung injury

# Source: patent publication US5753631A, “Intercellular adhesion mediators” (Cytel Corporation, priority 1995, dated 1998)
